“Also recorded” adds a separate entry of the source.

What all share (assay type): cell-based
The test system of experiment [1] is mTOR (S2448) phosphorylation. The experiment can be described thus: Immunoblot analysis of mTOR phosphorylation. Particulars: Panc-1; rapamycin, or Y29794 1 μM (FIG. 19D).
Description: Mouse anti-PRCP antibody was purchased from Abcam (Cambridge, Mass., USA). Goat anti-PREP antibody was purchased from R&D Systems (Minneapolis, Minn., USA). Mouse anti-R-actin antibody antibodies was from Santa Cruz Biotechnology (Santa Cruz, Calif., USA). Panc-1 pancreatic cancer cells and MCF7 breast cancer cells were cultured to 80% confluence, cells were rinsed three times with pre-cooled PBS, 500 μl of lysis buffer (150 mmol/L Nacl, 1% Triton-x-100, 50 mmol/l TrispH8.0, 1 mmol/L PMSF, 1 ug/L aprotinin, 1 ug/L leupeptin, 1 ug/L peptain) was added to the cells. Cells were scraped and transferred to a centrifuge tube with a pipette. The lysates were spun in a microcentrifuge at maximal speed for 10 minutes at 4° C. to get rid of the insoluble fraction. Protein concentration was determined by Bradford assay. For immunoprecipitation: 2-5 ug protein-specific antibodies were added to 250-500 ug of lysates in a tube and incubated on an ordital shaker 4° C. for 2-4 hours with moderate shaking, then 20 ul Protein G beads (Santa Cruz Biotechnology (Santa Cruz, Calif., USA.) were added and the mixture was incubated with moderate shaking for another hour. After washing the beads in lysis buffer five times, the immunoprecipitates were boiled in 2× Laemmli sample buffer (50 mmoL/L Tris-HCL (pH8.0), 100 mmoL/L DTT, 2% SDS, 0.1% bromophenol blue, 10% glycerol) for five minutes. The proteins were separated by conventional SDS-polyacrylamide gel electrophoresis (SDS-PAGE) electrophoresis and transferred to Amersham Hybond-P PVDF membrane (GE Company, Pittsburgh, Pa., USA). For immunoblot, the membrane was blocked in 2% BSA in TBST buffer (Tris 1.21 g+NaCl 5.84 g+800 ml H2O adjusted to pH 8.0 with HCl) for one hour and then incubated with primary antibodies in TBST at room temperature (22-25° C.) for 2 hours. After washing three times with TBST, the membrane was incubated with HRP-conjugated secondary antibodies for 0.5 hours at room temperature. […]
A further experiment relates to Panc-1. The experiment can be described thus: Colony formation assay (clonogenic assay). Particulars: Panc-1, rapamycin alone 1 nM and 10 nM. Here is the method:
1.2. Colony formation assay (clonogenic assay) was used to analyze the effect of ZPP or Y29794 on cancer cell survival. 10^3 Panc-1 cells were plated in 100 mm petri dish in triplicate fed with 10 ml of DMEM containing 10% FBS. The cells were then treated by ZPP for 7 days and cultured for additional three weeks. Cells were then rinsed three times with PBS, fixed with 100% ethanol for 15 min, and stained with 2% crystal violet ethanol solution. The stained colonies were counted. All the results are statistically analyzed by one way ANOVA and two tailed t-test.

In experiment [2] the test system is PI3K. Kind of experiment: PI3K kinase assay in anti-p85 immunoprecipitates. Particulars: Panc-1, 24 hours; ZPP 200 μM, Y29794 0.5 μM or rapamycin alone, vs vehicle. Here is the method: (§1) PI3K kinase assay kit (Calbiochem, Bilerica, Mass., USA) was used to measure the IRS-1-associated or p85-associated PI3K kinase activity in cells. The indicated cells were treated with different conditions for 24 hours. The cells were rinsed three times with pre-cooled PBS, lysed in 500 μl of lysis buffer (150 mmol/L Nacl, 1% Triton-x-100, 50 mmol/1 Tris (pH8.0, 1 mmol/L PMSF, 1 μg/L aprotinin, 1 μg/Lleupeptin, 1 μg/L peptain). Cell lysates (500 μg, in triplicate) of were used for anti-IRS-1 or anti-p85 immunoprecipitation. The immunoprecipitates were resuspended in 200 μl assay buffer and mixed with the fluorescence-labeled PI3K substrate BODIPY-TMR-phosphatidylinositol (100 μM) and ATP (37° C.) for 1 hour. The fluorescence intensity was measured with a fluorometer (excitation wavelength of 540 nm, emission wavelength […]). The difference between fluorescence intensity between control immunoprecipitates (no lysates) and lysate immunoprecipitates was used to indicate PI3K kinase activity. IR-1 anti-rabbit antibody and rabbit anti-PI3K p85 antibody were purchased from Millipore Corporation (Billerica, Mass., USA). Panc-1 anti-p85 immunoprecipitates were used for PI3K kinase assay (FIG. 12) and immunoblot analysis (FIG. 12). Rapamycin treatment in control cells increased PI3K kinase activity (P<0.01).

The test system of the next experiment is IRS-1. Kind of experiment: Immunoblot analysis of IRS-1 (protein, phosphorylation, half-life, p85 coimmunoprecipitation). How it is done: (§2) 2.2 Immunoblot analysis of gene silencing of PRCP or PREP in cancer cells. Mouse anti-PRCP antibody was purchased from Abcam (Cambridge, Mass., USA). Goat anti-PREP antibody was purchased from R&D Systems (Minneapolis, Minn., USA). Mouse anti-R-actin antibody antibodies was from Santa Cruz Biotechnology (Santa Cruz, Calif., USA). Panc-1 pancreatic cancer cells and MCF7 breast cancer cells were cultured to 80% confluence, cells were rinsed three times with pre-cooled PBS, 500 μl of lysis buffer (150 mmol/L Nacl, 1% Triton-x-100, 50 mmol/l TrispH8.0, 1 mmol/L PMSF, 1 ug/L aprotinin, 1 ug/L leupeptin, 1 ug/L peptain) was added to the cells. Cells were scraped and transferred to a centrifuge tube with a pipette. The lysates were spun in a microcentrifuge at maximal speed for 10 minutes at 4° C. to get rid of the insoluble fraction. Protein concentration was determined by Bradford assay. For immunoprecipitation: 2-5 ug protein-specific antibodies were added to 250-500 ug of lysates in a tube and incubated on an ordital shaker 4° C. for 2-4 hours with moderate shaking, then 20 ul Protein G beads (Santa Cruz Biotechnology (Santa Cruz, Calif., USA.) were added and the mixture was incubated with moderate shaking for another hour. After washing the beads in lysis buffer five times, the immunoprecipitates were boiled in 2× Laemmli sample buffer (50 mmoL/L Tris-HCL (pH8.0), 100 mmoL/L DTT, 2% SDS, 0.1% bromophenol blue, 10% glycerol) for five minutes. The proteins were separated by conventional SDS-polyacrylamide gel electrophoresis (SDS-PAGE) electrophoresis and transferred to Amersham Hybond-P PVDF membrane (GE Company, Pittsburgh, Pa., USA). For immunoblot, the membrane was blocked in 2% BSA in TBST buffer (Tris 1.21 g+NaCl 5.84 g+800 ml H2O adjusted to pH 8.0 with HCl) for one hour and then incubated with primary antibodies in TBST at room temperature (22-25° C.) for 2 hours. After washing three times with TBST, the membrane was incubated with HRP-conjugated secondary antibodies for 0.5 hours at room temperature. After washing the membrane five times with TBST (5 minutes/each), the membrane was incubated with ECL chromogenic reagent (GE Company, Pittsburgh, Pa., USA) for 1-5 minutes. The blots were exposed to films in darkroom for 1-5 minute. The films were developed in an automatic X-OMAT Developer (KODAK, Rochester, N.Y., USA). […] PREP gene silencing (PREP KD) or PRCP gene silencing (PRCP KD) or gene silencing both PRCP and PREP (DKD) in MCF7 cells reduces expression of PREP and/or PRCP proteins compared with control cells (control) (FIGS. 6B & 6C).
3.2 AKT phosphorylation was examined by immunoblot as described in 3.1. IRS-1 expression was analyzed by immunoblot using anti-IRS-1 antibodies purchased from Santa Cruz Biotechnology (Santa Cruz, Calif., USA). Reduction in PRCP and/or PREP by gene silencing is shown by Western blot and quantitative PCR described in 2.2.
3.4 ZPP or Y29794 inhibits IRS-1 tyrosine phosphorylation and p85 PI3K subunit interaction with IRS-1 and PI3K kinase activity. Panc-1 cells were treated with ZPP (200 μM) or Y29794 (0.5 μM) for 24 hours. Lysates were immunoprecipitated with anti-IRS-1 antibodies and the anti-IRS-1 immunoprecipitates were used for PI3K kinase assay and anti-IRS-1 phospho-tyrosine and anti-p85 immunoblot analysis (FIG. 13). ZPP or Y29794 decreased IRS-1-associated PI3K activity (FIG. 13, upper) and tyrosine phosphorylation of IRS-1 and p85 (FIG. 13, lower).
As described in Example 2.2 and above, the cells with PRCP and PREP gene silencing were used for analysis of PRCP and PREP gene silencing and inhibition of serine phosphorylation and degradation of IRS-1 and its effects on response to rapamycin. […] Compared to control cells, DKD cells show […] serine phosphorylation (S307 and S636/639) of IRS-1 alongside with decreased tyrosine phosphorylation of IRS-1 (FIG. 18B). […]

In experiment [3] the test system is AKT phosphorylation (S473). Kind of experiment: Immunoblot analysis of AKT phosphorylation in cancer cells. Particulars: 24 hours. How it is done:
as §2
3.1 Reduction in AKT phosphorylation is examined by immunoblot using rabbit anti-phospho-AKT […] and rabbit anti-pan AKT antibodies purchased from Cell Signaling Technology (Danvers, Mass., USA) in the cells with gene silencing of PRCP and/or PREP or treated with ZPP or Y29794. Reduction in PRCP and/or PREP is shown by Western blot and quantitative PCR described in 2.2.
(A western blot detects proteins with antibodies after separation by electrophoresis.)

The test system of experiment [4] is S6K (T389) phosphorylation. The experiment can be described thus: Immunoblot analysis of S6K phosphorylation. Particulars: Panc-1 cells incl. PRCP and PREP silenced cells, rapamycin (FIG. 18D). Here is the method: 2.2 Immunoblot analysis of gene silencing of PRCP or PREP in cancer cells. Mouse anti-PRCP antibody was purchased from Abcam (Cambridge, Mass., USA). Goat anti-PREP antibody was purchased from R&D Systems (Minneapolis, Minn., USA). Mouse anti-R-actin antibody antibodies was from Santa Cruz Biotechnology (Santa Cruz, Calif., USA). Panc-1 pancreatic cancer cells and MCF7 breast cancer cells were cultured to 80% confluence, cells were rinsed three times with pre-cooled PBS, 500 μl of lysis buffer (150 mmol/L Nacl, 1% Triton-x-100, 50 mmol/l TrispH8.0, 1 mmol/L PMSF, 1 ug/L aprotinin, 1 ug/L leupeptin, 1 ug/L peptain) was added to the cells. Cells were scraped and transferred to a centrifuge tube with a pipette. The lysates were spun in a microcentrifuge at maximal speed for 10 minutes at 4° C. to get rid of the insoluble fraction. Protein concentration was determined by Bradford assay. […]

In experiment [5] the test system is PI3K. Kind of experiment: PI3K kinase assay in anti-IRS-1 immunoprecipitates. Particulars: Panc-1, 24 hours; ZPP 200 μM, Y29794 0.5 μM or rapamycin alone. Here is the method:
as §1, with “(P<0.01). […]” for “(P<0.01).”

`CO[C@H]1C[C@@H]2CC[C@@H](C)[C@@](O)(O2)C(=O)C(=O)N2CCCC[C@H]2C(=O)O[C@H]([C@H](C)C[C@@H]2CC[C@@H](O)[C@H](OC)C2)CC(=O)[C@H](C)/C=C(\C)[C@@H](O)[C@@H](OC)C(=O)[C@H](C)C[C@H](C)/C=C/C=C/C=C/1C` [rapamycin, (3S,6R,7E,9R,10R,12R,14S,15E,17E,19E,21S,23S,26R,27R,34aS)-9,10,12,13,14,21,22,23,24,25,26,27,32,33,34,34a-hexadecahydro-9,27-dihydroxy-3-[(1R)-2-[(1S,3R,4R)-4-hydroxy-3-methoxycyclohexyl]-1-methylethyl]-10,21-dimethoxy-6,8,12,14,20,26-hexamethyl-23,27-epoxy-3H-pyrido[2,1-c][1,4]oxaazacyclohentriacontine-1,5,11,28,29 (4H,6H,31H)-pentone]: the “mTOR (S2448) phosphorylation” value in experiment [1] is “inhibits; also recorded: completely inhibited”. The “cell survival (colony formation)” value in the experiment on Panc-1 is “did not affect”. In the experiment with PI3K [2], the “PI3K kinase activity (p85-associated)” value is reported as “increases; also recorded: significantly elevated”. The IRS-1 protein result with IRS-1 (MCF7, rapamycin 10 nM, 24 hours) is listed as “increased; also recorded: induced an increase”; in the experiment on IRS-1 (Panc-1, rapamycin 10 nM, 24 hours) it was “significantly increased; also recorded: induced an increase”; in the experiment with IRS-1 (control Panc-1 cells, rapamycin, concentration not given), “increases; also recorded: induced increase”. Besides, the “tyrosine phosphorylation of IRS-1” value with IRS-1 (Panc-1, rapamycin 10 nM (FIG. 10A legend)) is listed as “increased”. Moreover, the “serine phosphorylation (S307 and S636/639) of IRS-1” value in the experiment with IRS-1 (control Panc-1 cells, rapamycin (FIG. 18D)) is given as “inhibits; also recorded: inhibiting”. In addition, the AKT phosphorylation result in experiment [3] (MCF7, rapamycin 10 nM) is on record as “increased; also recorded: induced an increase”; in experiment [3] (Panc-1, rapamycin 10 nM) it was “significantly increased; also recorded: induced an increase”. Further, the “phosphorylation of S6K (T389)” value in experiment [4] is “completely inhibited”. Further, in the experiment on PI3K [5], the “IRS-1-associated PI3K activity” value is on record as “increases; also recorded: significantly elevated”.

Source of the values: patent publication US9750728B2, “Method and pharmaceutical composition for inhibiting PI3K/AKT/mTOR signaling pathway” (TARGETED THERAPEUTICS, LLC, priority 2012, dated 2017).
